PubChem BioAssay (NCI)
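Five compound concentrations were applied to cells in 96-well plates for 48 hours; endpoints were derived by simple linear interpolation of the resulting dose-response curve. GI50 = concentration required for 50% inhibition of growth. TGI: total growth inhibition.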

Key:
Test in all cases: NCI anticancer screen, dose series, 48 h
NCI-H460 lung = system: NCI-H460 lung
OVCAR-4 ovarian = system: OVCAR-4 ovarian
HT29 colon = system: HT29 colon
MDA-MB-435 = system: MDA-MB-435
RPMI-8226 leukemia = system: RPMI-8226 leukemia
ACHN renal = system: ACHN renal
T-47D breast = system: T-47D breast
PC-3 prostate = system: PC-3 prostate
NCI-H23 lung = system: NCI-H23 lung
NCI-H522 lung = system: NCI-H522 lung

Structure (SMILES)	TGI (NCI-H460 lung) [µM]	TGI (OVCAR-4 ovarian) [µM]	TGI (HT29 colon) [µM]	TGI (MDA-MB-435) [µM]	TGI (RPMI-8226 leukemia) [µM]	TGI (ACHN renal) [µM]	TGI (T-47D breast) [µM]	TGI (PC-3 prostate) [µM]	TGI (NCI-H23 lung) [µM]	TGI (NCI-H522 lung) [µM]	GI50 (NCI-H460 lung) [µM]	GI50 (OVCAR-4 ovarian) [µM]	GI50 (NCI-H522 lung) [µM]	GI50 (HT29 colon) [µM]	GI50 (MDA-MB-435) [µM]	GI50 (RPMI-8226 leukemia) [µM]	GI50 (ACHN renal) [µM]	GI50 (PC-3 prostate) [µM]	GI50 (NCI-H23 lung) [µM]	GI50 (T-47D breast) [µM]
O=[N+]([O-])c1ccc(C(c2c[nH]c3ccccc23)c2c[nH]c3ccccc23)cc1	12.6	28.2	31.8	32.3	13.4	21.5	7.07	28.4	21.4	–	–	–	–	–	–	–	–	–	–	–
CC[C@H](C)N(CCN)C(=O)c1cc2ccccc2c(-c2ccccc2Cl)n1	27.1	30.1	20.5	–	32.4	28.1	–	–	28.6	34	–	–	–	–	–	–	–	–	–	–
O=C(CNc1nncs1)NO	> 100	> 100	> 100	–	> 100	> 100	–	–	> 100	> 100	–	–	–	–	–	–	–	–	–	–
CC1=C(C)C(=O)c2c(cc3ccc4ccccc4n23)C1=O	> 100	> 100	> 100	–	> 100	> 100	–	–	> 100	–	–	–	–	–	–	–	–	–	–	–
COc1cc(C2C=C(c3cccc(NC(C)=O)c3)Nc3ncnn32)cc(OC)c1OC (stereo not drawn)	> 100	> 100	> 100	0.579	32.5	> 100	–	> 100	> 100	> 100	2.14	5.8	1.49	1.38	0.117	3.35	3.47	1.13	0.468	–
COc1cc2c3c(n(C)c(=O)c2cc1OC)-c1cc2c(cc1/C3=C\CCCCCN)OCO2	21.7	> 94.1	> 100	> 90.6	1.38	9.28	> 55.5	–	13.3	> 100	0.13	17.4	1.23	1.17	4.09	0.1	0.289	–	1.62	5.61
CCOC(=O)c1c2c(n3ccc(NC(=O)CCN4CCCC4)cc13)C(=O)c1ncccc1C2=O	–	–	3.46	3.08	4.65	1.52	4.24	2.88	–	–	–	–	–	1.57	1.53	1.56	0.0382	1.31	–	1.7
O=C(Oc1ccc(Cl)cc1Cl)c1ccccc1Nc1ccnc(C(F)(F)F)c1	33.8	–	–	8.1	6.29	27	–	25.5	13.6	36	4.26	–	4.61	–	2.91	2.39	13.2	8.24	3.51	–
CC(=O)O/C=C(/C=C/OC(C)=O)C(C/C=C(\C)C#CC=C(C)C)OC(C)=O (stereo not drawn)	> 100	> 100	> 100	–	> 100	> 100	–	–	> 100	73.7	–	–	–	–	–	–	–	–	–	–
CCOc1ccccc1NC(=O)C(=O)CC(=O)c1c(C)n([O-])c2ccccc2[n+]1=O	> 100	> 100	> 100	–	> 100	> 100	–	–	> 100	> 100	–	–	–	–	–	–	–	–	–	–
Cc1cc(-c2ncc(CC(=O)Nc3ccc(-c4cnccn4)cn3)cc2C)ccn1	> 100	> 100	> 100	> 100	> 100	> 100	–	> 100	> 100	> 100	63	6.11	22.7	57.8	21.8	19.2	31.5	28.2	23.6	–
COC(=O)N[C@H]1CCc2c(Br)c(OC)c(OC)c(OC)c2-c2ccc(SC)c(=O)cc21	10.7	> 57	18.8	< 0.01	5.84	25.4	–	32.6	18.5	1.22	< 0.01	0.152	< 0.01	< 0.01	< 0.01	< 0.01	< 0.01	< 0.01	< 0.01	–
Cc1ccc(OCC(=O)N2N=C(c3ccccc3)CC2(O)c2ccccc2)cc1 (stereo not drawn)	28.2	71.6	–	–	> 100	> 100	–	–	> 100	> 100	–	–	–	–	–	–	–	–	–	–
CCC[CH2][Sn-]([CH2]CCC)([CH2]CCC)[O]c1cc(Cl)c(Cl)cc1Cl	0.344	0.398	0.404	0.359	0.853	0.339	0.35	0.458	1.17	–	0.165	0.148	–	0.162	0.16	0.137	0.19	0.207	0.23	0.137
CNC(P(=O)([O-])[O-])P(=O)([O-])[O-].N.N.[Pt+2]	> 100	> 100	–	–	–	–	–	–	> 100	> 100	51.2	> 100	> 100	–	–	–	–	–	> 100	–
COc1ccc2cc(C(=O)/C=C/c3cc(OC)c(OC)c(OC)c3)ccc2c1	5.73	> 50	19.7	40.5	> 50	18.2	> 50	> 50	11.2	–	1.27	2.82	–	2.72	2.67	6.84	7.17	9.84	1.77	> 50
CC1=C(C(=O)Nc2c(C)cccc2C)C(c2ccc3c(c2)OCO3)C(C(=O)Nc2c(C)cccc2C)=C(C)N1	39.9	77.3	30.2	–	–	35.2	–	–	29.8	31.7	–	–	–	–	–	–	–	–	–	–
COC(=O)C1CC2(CC3=C1CCCC3)OCCO2 (stereo not drawn)	> 100	> 100	> 100	–	> 100	–	–	–	> 100	> 100	–	–	–	–	–	–	–	–	–	–
